# Assay results: ChEMBL document CHEMBL2413072, “Synthesis and in vitro anticancer studies of novel C-2 arylidene congeners of lantadenes” (2013)
# Activity calls are given as the source filed them. The rule behind the calls is not given here.
# Columns and labels:
# Format in all cases: functional
# [1] = system: MDA-MB-468; test: Growth inhibition of human MDA-MB-468 cells assessed as cell growth at 10^-4 M by sulforhodamine B assay; conditions: read-out: Activity
# [2] = system: NCI-H23; test: Growth inhibition of human NCI-H23 cells assessed as cell growth at 10^-7 M by sulforhodamine B assay; conditions: read-out: Activity
# [3] = Growth inhibition of human HCC2998 cells assessed as cell growth at 10 uM by sulforhodamine B assay; conditions: HCC 2998, read-out: Activity
# [4] = system: NCI-H522; test: Growth inhibition of human NCI-H522 cells assessed as growth inhibition at 10 uM by sulforhodamine B assay; conditions: read-out: GI
# [5] = system: A549; test: Growth inhibition of human A549/ATCC cells assessed as cell growth at 10^-6 M by sulforhodamine B assay; conditions: read-out: Activity
# [6] = system: HT-29; test: Growth inhibition of human HT-29 cells assessed as cell growth at 10 uM by sulforhodamine B assay; conditions: read-out: Activity
# [7] = system: SR; test: Growth inhibition of human SR cells by sulforhodamine B assay
# [8] = system: NCI-H23; test: Growth inhibition of human NCI-H23 cells assessed as cell growth at 10 uM by sulforhodamine B assay; conditions: read-out: Activity
# [9] = system: BT-549; test: Growth inhibition of human BT549 cells assessed as cell growth at 10^-4 M by sulforhodamine B assay; conditions: read-out: Activity
# [10] = system: SF-268; test: Growth inhibition of human SF268 cells assessed as cell growth at 10 uM by sulforhodamine B assay; conditions: read-out: Activity
# [11] = system: SN12C; test: Growth inhibition of human SN12C cells assessed as cell growth at 10 uM by sulforhodamine B assay; conditions: read-out: Activity
# [12] = system: HCT-15; test: Growth inhibition of human HCT15 cells by sulforhodamine B assay
# [13] = system: MOLT-4; test: Growth inhibition of human MOLT4 cells assessed as cell growth at 10^-7 M by sulforhodamine B assay; conditions: read-out: Activity
# [14] = system: Malme-3M; test: Growth inhibition of human MALME-3M cells assessed as growth inhibition at 10 uM by sulforhodamine B assay; conditions: read-out: GI
# [15] = system: UACC-62; test: Growth inhibition of human UACC62 cells assessed as cell growth at 10 uM by sulforhodamine B assay; conditions: read-out: Activity
# [16] = system: SK-MEL-5; test: Growth inhibition of human SK-MEL-5 cells assessed as cell growth at 10^-4 M by sulforhodamine B assay; conditions: read-out: Activity
# [17] = system: TK-10; test: Growth inhibition of human TK10 cells assessed as cell growth at 10 uM by sulforhodamine B assay; conditions: read-out: Activity
# [18] = system: CCRF-CEM; test: Growth inhibition of human CCRF-CEM cells assessed as cell growth at 10^-4 M by sulforhodamine B assay; conditions: read-out: Activity
# [19] = system: MDA-MB-231; test: Growth inhibition of human MDA-MB-231 cells by sulforhodamine B assay
# [20] = system: MDA-MB-231; test: Growth inhibition of human MDA-MB-231 cells assessed as cell growth at 10^-8 M by sulforhodamine B assay; conditions: read-out: Activity
# [21] = system: OVCAR-8; test: Growth inhibition of human OVCAR8 cells assessed as cell growth at 10 uM by sulforhodamine B assay; conditions: read-out: Activity
# [22] = system: CCRF-CEM; test: Growth inhibition of human CCRF-CEM cells assessed as growth inhibition at 10 uM by sulforhodamine B assay; conditions: read-out: GI
# [23] = system: K562; test: Growth inhibition of human K562 cells assessed as cell growth at 10 uM by sulforhodamine B assay; conditions: read-out: Activity
# [24] = system: SF-539; test: Growth inhibition of human SF539 cells assessed as cell growth at 10 uM by sulforhodamine B assay; conditions: read-out: Activity
# [25] = system: OVCAR-3; test: Growth inhibition of human OVCAR3 cells assessed as cell growth at 10 uM by sulforhodamine B assay; conditions: read-out: Activity
# [26] = system: NCI-H522; test: Growth inhibition of human NCI-H522 cells assessed as cell growth at 10^-4 M by sulforhodamine B assay; conditions: read-out: Activity
# [27] = system: A549; test: Growth inhibition of human A549/ATCC cells assessed as cell growth at 10^-8 M by sulforhodamine B assay; conditions: read-out: Activity
# [28] = system: MCF7; test: Growth inhibition of human MCF7 cells assessed as cell growth at 10 uM by sulforhodamine B assay; conditions: read-out: Activity
# [29] = Growth inhibition of human EKVX cells assessed as cell growth at 10 uM by sulforhodamine B assay; conditions: read-out: Activity
# [30] = system: OVCAR-3; test: Growth inhibition of human OVCAR3 cells assessed as growth inhibition at 10 uM by sulforhodamine B assay; conditions: read-out: GI
# [31] = Growth inhibition of human HCC2998 cells assessed as cell growth at 10^-6 M by sulforhodamine B assay; conditions: HCC 2998, read-out: Activity
# [32] = system: HCT-116; test: Growth inhibition of human HCT116 cells assessed as cell growth at 10^-6 M by sulforhodamine B assay; conditions: read-out: Activity
# [33] = system: NCI-H23; test: Growth inhibition of human NCI-H23 cells assessed as growth inhibition at 10 uM by sulforhodamine B assay; conditions: read-out: GI
# [34] = system: T47D; test: Growth inhibition of human T47D cells by sulforhodamine B assay
# [35] = system: MDA-MB-468; test: Growth inhibition of human MDA-MB-468 cells by sulforhodamine B assay
# [36] = system: UACC-62; test: Growth inhibition of human UACC62 cells assessed as growth inhibition at 10 uM by sulforhodamine B assay
# [37] = Growth inhibition of human NCI-ADR-RES cells assessed as cell growth at 10 uM by sulforhodamine B assay; conditions: read-out: Activity
# [38] = system: NCI-H522; test: Growth inhibition of human NCI-H522 cells assessed as cell growth at 10 uM by sulforhodamine B assay; conditions: read-out: Activity
# [39] = system: LOX IMVI; test: Growth inhibition of human LOXIMVI cells by sulforhodamine B assay
# [40] = system: NCI-H23; test: Growth inhibition of human NCI-H23 cells assessed as cell growth at 10^-4 M by sulforhodamine B assay; conditions: read-out: Activity
# [41] = system: UO-31; test: Growth inhibition of human UO31 cells assessed as cell growth at 10^-7 M by sulforhodamine B assay; conditions: read-out: Activity
# [42] = system: RPMI-8226; test: Growth inhibition of human RPMI8226 cells assessed as growth inhibition at 10 uM by sulforhodamine B assay; conditions: read-out: GI
# [43] = read-out: LC50 (the source's name)
# [44] = read-out: pLC50 (the source's name) (converted)
structure (smiles),measurement,setting,value
C/C=C(/C)C(=O)O[C@@H]1CC(C)(C)C[C@H]2C3=CC[C@@H]4[C@@]5(C)CC[C@H](O)C(C)(C)[C@@H]5CC[C@@]4(C)[C@]3(C)CC[C@@]12C(=O)O [Reduced Lantadene A],growth at 100 µM,[1],-86%
same,growth at 0.1 µM,[2],99%
same,growth at 10 µM,[3],26.4%
same,inhibition of growth at 10 µM,[4],50.3%
same,growth at 1 µM,[5],61%
same,growth at 10 µM,[6],55.8%
same,GI50,[7]; read-out: GI50,2.14 µM
same,CC50,[7]; [43],> 100 µM
same,TGI,[7]; read-out: TGI,5.63 µM
same,GI50,[7]; read-out: pGI50 (converted),2.14 µM
same,CC50,[7]; [44],> 100 µM
same,TGI,[7]; read-out: pTGI (converted),5.62 µM
same,growth at 10 µM,[8],64.7%
same,growth at 100 µM,[9],-90%
same,growth at 10 µM,[10],25.9%
same,growth at 10 µM,[11],5.77%
same,GI50,[12]; read-out: GI50,2.58 µM
same,LC50 (50% lethal concentration),[12]; read-out: LC50,62.6 µM
same,TGI,[12]; read-out: TGI,11.5 µM
same,GI50,[12]; read-out: pGI50 (converted),2.57 µM
same,LC50 (50% lethal concentration),[12]; read-out: pLC50 (converted),63.1 µM
same,TGI,[12]; read-out: pTGI (converted),11.5 µM
same,growth at 0.1 µM,[13],98%
same,inhibition of growth at 10 µM,[14],64.8%
same,growth at 10 µM,[15],-28.1%
same,growth at 100 µM,[16],-63%
same,growth at 10 µM,[17],66.8%
same,growth at 100 µM,[18],-2%
same,GI50,[19]; read-out: GI50,1.65 µM
same,CC50,[19]; [43],5.98 µM
same,TGI,[19]; read-out: TGI,3.14 µM
same,GI50,[19]; read-out: pGI50 (converted),1.66 µM
same,CC50,[19]; [44],6.03 µM
same,TGI,[19]; read-out: pTGI (converted),3.16 µM
same,growth at 0.01 µM,[20],99%
same,growth at 10 µM,[21],57.7%
same,inhibition of growth at 10 µM,[22],54.2%
same,growth at 10 µM,[23],35.9%
same,growth at 10 µM,[24],43%
same,growth at 10 µM,[25],32%
same,growth at 100 µM,[26],-66%
same,growth at 0.01 µM,[27],93%
same,growth at 10 µM,[28],61%
same,growth at 10 µM,[29],36.5%
same,inhibition of growth at 10 µM,[30],68%
same,growth at 1 µM,[31],101%
same,growth at 1 µM,[32],82%
same,inhibition of growth at 10 µM,[33],35.3%
same,GI50,[34]; read-out: GI50,11.8 µM
same,CC50,[34]; [43],> 100 µM
same,TGI,[34]; read-out: TGI,41.1 µM
same,GI50,[34]; read-out: pGI50 (converted),11.7 µM
same,CC50,[34]; [44],> 100 µM
same,TGI,[34]; read-out: pTGI (converted),40.7 µM
same,GI50,[35]; read-out: GI50,1.68 µM
same,CC50,[35]; [43],7.86 µM
same,TGI,[35]; read-out: TGI,3.64 µM
same,GI50,[35]; read-out: pGI50 (converted),1.7 µM
same,CC50,[35]; [44],7.94 µM
same,TGI,[35]; read-out: pTGI (converted),3.63 µM
same,growth inhibition (GI),[36],Active
same,growth at 10 µM,[37],69.8%
same,growth at 10 µM,[38],49.7%
same,GI50,[39]; read-out: GI50,3.39 µM
same,CC50,[39]; [43],66.8 µM
same,TGI,[39]; read-out: TGI,13 µM
same,GI50,[39]; read-out: pGI50 (converted),3.39 µM
same,CC50,[39]; [44],66.1 µM
same,TGI,[39]; read-out: pTGI (converted),12.9 µM
same,growth at 100 µM,[40],-51%
same,growth at 0.1 µM,[41],96%
same,inhibition of growth at 10 µM,[42],78.9%
